Test results: patent publication US20250223259A1, “PROTEASE INHIBITORS FOR TREATING OR PREVENTING CORONAVIRUS INFECTION” (Merck Sharp & Dohme LLC, priority 2022, published 2025)
pIC50: −log10 of the molar value.

target: SARS2 coronavirus 3CL protease (Severe acute respiratory syndrome coronavirus 2 (2019-nCoV) (SARS-CoV-2), UniProt P0DTD1); test: SARS2 Coronavirus 3CL Protease Assay (FRET); format: biochemical; details: SARS2 3CLPro FRET assay; 5 nM enzyme, 30 min pre-incubation with compound, 15 uM peptide substrate, 4 h room temperature

Compared with COC(=O)N[C@@H](C)C(=O)N1CC2(CCCCC2)C[C@H]1C(=O)N[C@@H](CCC(C)(F)F)C(=O)C(=O)NC1CC1 [Example 14, Methyl ((S)-1-((S)-3-(((S)-1-(cyclopropylamino)-6,6-difluoro-1,2-dioxoheptan-3-yl)carbamoyl)-2-azaspiro[4.5]decan-2-yl)-1-oxopropan-2-yl)carbamate], COC(=O)N[C@H](C(=O)N1CC2(CCCCC2)C[C@H]1C(=O)N[C@@H](CCC(C)(F)F)C(=O)C(=O)NC1CC1)C(F)(F)F [Example 46, Methyl ((R)-3-((S)-3-(((S)-1-(cyclopropylamino)-6,6-difluoro-1,2-dioxoheptan-3-yl)carbamoyl)-2-azaspiro[4.5]decan-2-yl)-1,1,1-trifluoro-3-oxopropan-2-yl)carbamate] is 0.31 log units higher in pIC50: 7.16 for the first, 7.47 for the second.

CC(C)[C@H](NC(=O)OC(C)(C)C)C(=O)N1CC2(CCCCC2)C[C@H]1C(=O)N[C@@H](CCC(C)(F)F)C(=O)C(=O)NC1CC1 [Example 15, Tert-butyl ((S)-1-((S)-3-(((S)-1-(cyclopropylamino)-6,6-difluoro-1,2-dioxoheptan-3-yl)carbamoyl)-2-azaspiro[4.5]decan-2-yl)-3-methyl-1-oxobutan-2-yl)carbamate] and COC(=O)N[C@H](C(=O)N1CC2(CCCCC2)C[C@H]1C(=O)N[C@@H](CCC(C)(F)F)C(=O)C(=O)NC1CCCCC1)C(C)(C)C [Example 16, Methyl ((S)-1-((S)-3-(((S)-1-(cyclohexylamino)-6,6-difluoro-1,2-dioxoheptan-3-yl)carbamoyl)-2-azaspiro[4.5]decan-2-yl)-3,3-dimethyl-1-oxobutan-2-yl)carbamate] are within 0.2 log units of each other in pIC50: 6.95 for the first, 6.87 for the second.

First: COC(=O)N[C@H](C(=O)N1CC2(CCCCC2)C[C@H]1C(=O)N[C@@H](CCC(C)(F)F)C(=O)C(=O)NCCN1CCOCC1)C(C)(C)C [Example 17, Methyl ((S)-1-((S)-3-(((S)-6,6-difluoro-1-((2-morpholinoethyl)amino)-1,2-dioxoheptan-3-yl)carbamoyl)-2-azaspiro[4.5]decan-2-yl)-3,3-dimethyl-1-oxobutan-2-yl)carbamate]
Second: COC(=O)N[C@H](C(=O)N1CC2(CCCCC2)C[C@H]1C(=O)N[C@@H](CCC(C)(F)F)C(=O)C(=O)NC(C)(C)C)C(C)(C)C [Example 18, Methyl ((S)-1-((S)-3-(((S)-1-(tert-butylamino)-6,6-difluoro-1,2-dioxoheptan-3-yl)carbamoyl)-2-azaspiro[4.5]decan-2-yl)-3,3-dimethyl-1-oxobutan-2-yl)carbamate]
The pIC50 of the first is 0.52 log units lower: 6.86 for the first, 7.38 for the second. The second is the more potent here.

Going from COC(=O)NC1(C(=O)N2CC3(CCCCC3)C[C@H]2C(=O)N[C@@H](CCC(C)(F)F)C(=O)C(=O)NC2CC2)CC1 [Example 19, Methyl (1-((S)-3-(((S)-1-(cyclopropylamino)-6,6-difluoro-1,2-dioxoheptan-3-yl)carbamoyl)-2-azaspiro[4.5]decane-2-carbonyl)cyclopropyl) carbamate] to COC(=O)N[C@H](C(=O)N1CCC2(CC2)C[C@H]1C(=O)N[C@@H](CCC(C)(F)F)C(=O)C(=O)NC1CC1)C(C)(C)C [Example 29, Methyl ((S)-1-((S)-5-(((S)-1-(cyclopropylamino)-6,6-difluoro-1,2-dioxoheptan-3-yl)carbamoyl)-6-azaspiro[2.5]octan-6-yl)-3,3-dimethyl-1-oxobutan-2-yl)carbamate], the pIC50 rises from 6.30 to 8.11 (1.81 log units).

COC(=O)N[C@H](C(=O)N1CCC2(CC2)C[C@H]1C(=O)N[C@@H](CCC(C)(F)F)C(=O)C(N)=O)C(C)(C)C [Example 20, Methyl ((S)-1-((S)-5-(((S)-1-amino-6,6-difluoro-1,2-dioxoheptan-3-yl)carbamoyl)-6-azaspiro[2.5]octan-6-yl)-3,3-dimethyl-1-oxobutan-2-yl)carbamate] and CNC(=O)C(=O)[C@H](CCC(C)(F)F)NC(=O)[C@@H]1CC2(CCN1C(=O)[C@@H](NC(=O)OC)C(C)(C)C)CC2 [Example 21, Methyl ((S)-1-((S)-5-(((S)-6,6-difluoro-1-(methylamino)-1,2-dioxoheptan-3-yl)carbamoyl)-6-azaspiro[2.5]octan-6-yl)-3,3-dimethyl-1-oxobutan-2-yl)carbamate] are within 0.2 log units of each other in pIC50: 8.13 for the first, 8.19 for the second.

CNC(=O)C(=O)[C@H](CCC(C)(F)F)NC(=O)[C@@H]1C[C@H](C(F)(F)F)CCN1C(=O)[C@@H](NC(=O)OC)C(C)(C)C [Example 22, Methyl ((S)-1-((2S,4R)-2-(((S)-6,6-difluoro-1-(methylamino)-1,2-dioxoheptan-3-yl)carbamoyl)-4-(trifluoromethyl)piperidin-1-yl)-3,3-dimethyl-1-oxobutan-2-yl)carbamate] and CNC(=O)C(=O)[C@H](CCC(C)(F)F)NC(=O)[C@@H]1C[C@@H](C(F)(F)F)CN1C(=O)[C@@H](NC(=O)OC)C(C)(C)C [Example 27, Methyl ((S)-1-((2S,4R)-2-(((S)-6,6-difluoro-1-(methylamino)-1,2-dioxoheptan-3-yl)carbamoyl)-4-(trifluoromethyl)pyrrolidin-1-yl)-3,3-dimethyl-1-oxobutan-2-yl)carbamate] are within 0.2 log units of each other in pIC50: 8.00 for the first, 7.85 for the second.

COC(=O)N[C@H](C(=O)N1C[C@@H]2CC(C)(C)[C@@H]2[C@H]1C(=O)N[C@@H](CCC(C)(F)F)C(=O)C(=O)NC1CC1)C(C)(C)C [Example 25, Methyl ((S)-1-((1R,2S,5R)-2-(((S)-1-(cyclopropylamino)-6,6-difluoro-1,2-dioxoheptan-3-yl)carbamoyl)-7,7-dimethyl-3-azabicyclo[3.2.0]heptan-3-yl)-3,3-dimethyl-1-oxobutan-2-yl)carbamate] and COC(=O)N[C@H](C(=O)N1C[C@H]2[C@@H]([C@H]1C(=O)N[C@@H](CCC(C)(F)F)C(=O)C(=O)NC1CC1)C(C)(C)C2(C)C)C(C)(C)C [Example 36, Methyl ((S)-1-((1R,2S,5S)-2-(((S)-1-(cyclopropylamino)-6,6-difluoro-1,2-dioxoheptan-3-yl)carbamoyl)-6,6,7,7-tetramethyl-3-azabicyclo[3.2.0]heptan-3-yl)-3,3-dimethyl-1-oxobutan-2-yl)carbamate] are within 0.2 log units of each other in pIC50: 8.06 for the first, 8.09 for the second.

Compared with COC(=O)N[C@H](C(=O)N1C[C@@H]2CCCC[C@@H]2C[C@H]1C(=O)N[C@@H](CCC(C)(F)F)C(=O)C(=O)NC1CC1)C(C)(C)C [Example 26, Methyl ((S)-1-((3S,4aR,8aR)-3-(((S)-1-(cyclopropylamino)-6,6-difluoro-1,2-dioxoheptan-3-yl)carbamoyl)octahydroiso-quinolin-2(1H)-yl)-3,3-dimethyl-1-oxobutan-2-yl)carbamate], COC(=O)N[C@H](C(=O)N1C[C@@H]2CCC[C@@H]2[C@H]1C(=O)N[C@@H](CCC(C)(F)F)C(=O)C(=O)NC1CC1)C(C)(C)C [Example 31, Methyl ((S)-1-((1S,3aR,6aS)-1-(((S)-1-(cyclopropylamino)-6,6-difluoro-1,2-dioxoheptan-3-yl)carbamoyl)hexahydrocyclo-penta[c]pyrrol-2(1H)-yl)-3,3-dimethyl-1-oxobutan-2-yl)carbamate] is 0.34 log units higher in pIC50: 7.66 for the first, 8.00 for the second. The second is the more potent here.

COC(=O)N[C@H](C(=O)N1C[C@H]2[C@H](CCC2(F)F)[C@H]1C(=O)N[C@@H](CCC(C)(F)F)C(=O)C(=O)NC1CC1)C(C)(C)C [Example 33, Methyl ((S)-1-((1S,3aR,6aS)-1-(((S)-1-(cyclopropylamino)-6,6-difluoro-1,2-dioxoheptan-3-yl)carbamoyl)-4,4-difluorohexahydrocyclopenta[c]pyrrol-2(1H)-yl)-3,3-dimethyl-1-oxobutan-2-yl)carbamate] and CNC(=O)C(=O)[C@H](CCC(C)(F)F)NC(=O)[C@@H]1[C@H]2CCC(F)(F)[C@H]2CN1C(=O)[C@@H](NC(=O)OC)C(C)(C)C [Example 35, Methyl ((S)-1-((1S,3aR,6aS)-1-(((S)-6,6-difluoro-1-(methylamino)-1,2-dioxoheptan-3-yl)carbamoyl)-4,4-difluorohexahydrocyclopenta[c]pyrrol-2(1H)-yl)-3,3-dimethyl-1-oxobutan-2-yl)carbamate] are within 0.2 log units of each other in pIC50: 8.01 for the first, 8.09 for the second.

COC(=O)N[C@H](C(=O)N1C[C@H]2[C@@H]([C@H]1C(=O)N[C@@H](CCC(C)(F)F)C(=O)C(=O)NC1CC1)C21CCCC1)C(C)(C)C [Example 38, Methyl ((S)-1-((1R,2S,5S)-2-(((S)-1-(cyclopropylamino)-6,6-difluoro-1,2-dioxoheptan-3-yl)carbamoyl)-3-azaspiro[bicyclo[3.1.0]hexane-6,1′-cyclopentan]-3-yl)-3,3-dimethyl-1-oxobutan-2-yl)carbamate] and CNC(=O)C(=O)[C@H](CCC(C)(F)F)NC(=O)[C@@H]1[C@@H]2[C@H](CN1C(=O)[C@@H](NC(=O)OC)C(C)(C)C)C21CCOCC1 [Example 40, Methyl ((S)-1-((1R,2S,5S)-2-(((S)-6,6-difluoro-1-(methylamino)-1,2-dioxoheptan-3-yl)carbamoyl)tetrahydro-3-azaspiro[bicyclo[3.1.0]hexane-6,4′-pyran]-3-yl)-3,3-dimethyl-1-oxobutan-2-yl)carbamate] are within 0.2 log units of each other in pIC50: 8.01 for the first, 7.92 for the second.

First: CNC(=O)C(=O)[C@H](CCC(C)(F)F)NC(=O)[C@@H]1[C@@H]2[C@H](CN1C(=O)[C@@H](NC(=O)OC)C(C)(C)C)C2(C)C [Example 39, Methyl ((S)-1-((1R,2S,5S)-2-(((S)-6,6-difluoro-1-(methylamino)-1,2-dioxoheptan-3-yl)carbamoyl)-6,6-dimethyl-3-azabicyclo[3.1.0]hexan-3-yl)-3,3-dimethyl-1-oxobutan-2-yl)carbamate]
Second: COC(=O)N[C@H](C(=O)N1C[C@H]2[C@@H]([C@H]1C(=O)N[C@@H](CCC(C)(F)F)C(=O)C(N)=O)C(C)(C)C2(C)C)C(C)(C)C [Example 42, Methyl ((S)-1-((1R,2S,5S)-2-(((S)-1-amino-6,6-difluoro-1,2-dioxoheptan-3-yl)carbamoyl)-6,6,7,7-tetramethyl-3-azabicyclo[3.2.0]heptan-3-yl)-3,3-dimethyl-1-oxobutan-2-yl)carbamate]
The pIC50 of the first is 0.26 log units higher: 7.92 for the first, 7.66 for the second. The first is the more potent here.

COC(=O)N[C@H](C(=O)N1C[C@H](OC(F)(F)F)C(C)(C)[C@H]1C(=O)N[C@@H](CCC(C)(F)F)C(=O)C(=O)NC1CC1)C(C)(C)C [Example 48, Methyl ((S)-1-((2S,4R)-2-(((S)-1-(cyclopropylamino)-6,6-difluoro-1,2-dioxoheptan-3-yl)carbamoyl)-3,3-dimethyl-4-(trifluoromethoxy)pyrrolidin-1-yl)-3,3-dimethyl-1-oxobutan-2-yl)carbamate] was tested, and the pIC50 was 7.35.
